Experimental data published in ChEMBL document CHEMBL3044621, “1-(7-Chloroquinolin-4-yl)-2-[(1H-pyrrol-2-yl)methylene]hydrazine: a potent compound against cancer” (Med Chem Res, 2012).
≈ marks a conversion by molar mass, not a printed value.

Assays:
[1] = system: HCT-8; experiment: Cytotoxicity against Homo sapiens (human) HCT8 cells after 72 hr by MTT assay; format: functional, cell-based; settings: HCT-8, 72 h
[2] = system: HCT-8; experiment: Cytotoxicity against Homo sapiens (human) HCT8 cells assessed as growth inhibition at 25 ug/ml after 72 hr by MTT assay; format: functional; settings: HCT-8, 72 h, read-out: GI
[3] = system: MDA-MB-435; experiment: Cytotoxicity against Homo sapiens (human) MDA-MB-435 cells assessed as growth inhibition at 25 ug/ml after 72 hr by MTT assay; format: functional; settings: MDA-MB-435, 72 h, read-out: GI
[4] = system: SF-295; experiment: Cytotoxicity against Homo sapiens (human) SF295 cells assessed as growth inhibition at 25 ug/ml after 72 hr by MTT assay; format: functional; settings: SF-295, 72 h, read-out: GI
[5] = system: MDA-MB-435; experiment: Cytotoxicity against Homo sapiens (human) MDA-MB-435 cells after 72 hr by MTT assay; format: functional, cell-based; settings: MDA-MB-435, 72 h
[6] = system: MDA-MB-435; experiment: Ratio of doxorubicin IC50 to compound IC50 for Homo sapiens (human) MDA-MB-435 cells; format: functional
[7] = system: HL-60; experiment: Cytotoxicity against Homo sapiens (human) HL60 cells after 72 hr by MTT assay; format: functional, cell-based; settings: HL-60, 72 h
[8] = system: SF-295; experiment: Cytotoxicity against Homo sapiens (human) SF295 cells after 72 hr by MTT assay; format: functional, cell-based; settings: SF-295, 72 h

SMILES	IC50 [1]	inhibition of growth at 25 µg/mL [2]	inhibition of growth at 25 µg/mL [3]	inhibition of growth at 25 µg/mL [4]	IC50 [5]	Ratio IC50 [6]	IC50 [7]	IC50 [8]
COc1cccc2c1C(=O)c1c(O)c3c(c(O)c1C2=O)C[C@@](O)(C(=O)CO)C[C@@H]3O[C@H]1C[C@H](N)[C@H](O)[C@H](C)O1 [DOXORUBICIN]	0.01 µg/mL (≈ 0.0184 µM)							
Clc1ccc2c(N/N=C/c3ncc[nH]3)ccnc2c1		34%	82.6%	30.2%				
O=[N+]([O-])c1ccc(/C=N/Nc2ccnc3cc(Cl)ccc23)s1		49%	42.1%	33.4%				
Clc1ccc2c(N/N=C/c3ccco3)ccnc2c1		53.2%	68.5%	61.9%				
Clc1ccc2c(N/N=C/c3cccs3)ccnc2c1		21.1%	21.6%	1.03%				
Clc1ccc2c(N/N=C/c3ccc[nH]3)ccnc2c1	0.441 µg/mL (≈ 1.63 µM)	100%	100%	100%	0.117 µg/mL (≈ 0.431 µM)	4	0.0952 µg/mL (≈ 0.352 µM)	0.527 µg/mL (≈ 1.95 µM)
O=[N+]([O-])c1ccc(/C=N/Nc2ccnc3cc(Cl)ccc23)o1		24.1%	38%	7.53%				
